Counter-ions that a name gives are not always drawn.
Molecular target: T1, steroid 17α-hydroxylase and/or steroid C17-20 lyase (Rattus norvegicus, UniProt P11715)
T1 construct: the testis of rats (SD, male) was homogenized and centrifuged to obtain microsome; from tissue; host or cells: rat (SD, male) testis microsomes
T1 sequence (P11715 1-507): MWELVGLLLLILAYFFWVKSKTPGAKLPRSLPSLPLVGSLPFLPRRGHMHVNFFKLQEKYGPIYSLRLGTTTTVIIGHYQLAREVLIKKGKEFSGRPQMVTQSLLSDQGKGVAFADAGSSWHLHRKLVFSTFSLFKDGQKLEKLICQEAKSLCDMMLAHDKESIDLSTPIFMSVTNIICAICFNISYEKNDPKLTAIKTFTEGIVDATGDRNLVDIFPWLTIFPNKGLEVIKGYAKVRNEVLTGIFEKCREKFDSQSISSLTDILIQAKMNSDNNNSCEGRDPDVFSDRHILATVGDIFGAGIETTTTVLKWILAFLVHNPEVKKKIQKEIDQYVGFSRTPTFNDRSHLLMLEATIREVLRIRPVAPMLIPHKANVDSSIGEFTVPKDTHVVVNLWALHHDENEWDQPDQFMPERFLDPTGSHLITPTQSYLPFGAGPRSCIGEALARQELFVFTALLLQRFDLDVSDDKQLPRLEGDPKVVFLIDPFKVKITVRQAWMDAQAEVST
Assay: Measurement of steroid 17α-hydroxylase and/or steroid C17-20 lyase inhibitory activity (rat testis microsome, HPLC)
Assay type: biochemical
Details: Enzyme source: rat testis microsome; test compound 300 nM; substrate 25 μM 17α-hydroxyprogesterone; NADPH 500 μM; 20 minutes at 37° C.
Experimental: An experiment was carried out according to the method of T. Sergejew and R. W. Hartmann (J. Enzyme Inhibition, 8, 113(1994)). That is, the testis of rats (SD, male) was homogenized and centrifuged to obtain microsome. […] After the addition of 100 μl of microsome protein solution, the protein contentration was adjusted to 0.1 mg/ml by 50 mM phosphate buffer solution (pH 7.4), 140 μl of 125 nmol NADPH solution, and 10 μl of 6.25 nmol 17α-hydroxyprogesterone, the mixture was incubated for 20 minutes at 37° C. 50 μl of 1N hydrochloric acid and 1000 μl of ethyl acetate were sequentially added to the mixture. The mixture was shaken and centrifuged. The ethyl acetate layer was washed with 250 μl of 50 mM phosphate buffer solution (pH 7.4) and 50 μl of 1N hydrochloric acid, centrifuged, and concentrated. The concentrate was dissolved in 100 μl of acetonitrile. 10 μl of this solution was charged to high performance liquid chromatography. The amounts of the substrate and the product (androstenedione and testosterone) were measured to calculate the enzyme activity. In this experiment, a sample without the test compound was provided as a control group. Steroid 17α-hydroxylase and/or steroid C17-20-lyase inhibitory activity (%) was calculated by the following equation (1) using the amounts of the substrate and the product obtained.

| Structure (SMILES) | inhibition at 0.3 µM [%] | Inhibitory activity (%) |
| --- | --- | --- |
| COc1ccc2c(-c3cccnc3)csc2c1 [Example 2, 3-[6-methoxybenzo[b]thiophen-3-yl]pyridine hydrochloride] | 89 |  |
| COc1ccc(-c2ccc3c(-c4ccncc4)csc3c2)cc1 [Example 7, 4-[6-(4-methoxyphenyl)benzo[b]thiophen-3-yl]pyridine] | 60 |  |
| Oc1ccc2c(-c3cccnc3)csc2c1 [Example 8, 3-(3-pyridyl)benzo[b]thiophen-6-ol] | 59 |  |
| CC(=O)Oc1ccc2c(-c3cccnc3)csc2c1 [Example 9, 3-(3-pyridyl)benzo[b]thiophen-6-yl=acetate] |  | 63 |
| O=C(Oc1ccc2c(-c3cccnc3)csc2c1)c1ccccc1 [Example 10, 3-(3-pyridyl)benzo[b]thiophen-6-yl=benzoate] |  | 71 |
| c1ccc(COc2ccc3c(-c4cccnc4)csc3c2)cc1 [Example 11, 3-(6-benzyloxybenzo[b]thiophen-3-yl)pyridine hydrochloride] | 71 |  |
| CC(C)Oc1ccc2c(-c3cccnc3)csc2c1 [Example 12, 3-(6-isopropyloxybenzo[b]thiophen-3-yl)pyridine hydrochloride] | 100 |  |
| Fc1ccc(-c2ccc3c(-c4cccnc4)csc3c2)cc1 [Example 13, 3-[6-(4-fluorophenyl)benzo[b]thiophen-3-yl]pyridine hydrochloride] | 93 |  |
| Fc1cccc(-c2ccc3c(-c4cccnc4)csc3c2)c1 [Example 14, 3-[6-(3-fluorophenyl)benzo[b]thiophen-3-yl]pyridine] | 91 |  |
| c1ccc(-c2ccc3c(-c4cccnc4)csc3c2)cc1 [Example 15, 3-(6-phenylbenzo[b]thiophen-3-yl)pyridine] | 93 |  |
| COc1cccc(-c2ccc3c(-c4cccnc4)csc3c2)c1 [Example 16, 3-[6-(3-methoxyphenyl)benzo[b]thiophen-3-yl]pyridine hydrochloride] | 73 |  |
| COc1ccc(-c2ccc3c(-c4cccnc4)csc3c2)cc1 [Example 18, 3-[6-(4-methoxyphenyl)benzo[b]thiophen-3-yl]pyridine] | 37 |  |
| Oc1ccc(-c2ccc3c(-c4cccnc4)csc3c2)cc1 [Example 19, 4-[3-(3-pyridyl)benzo[b]thiophen-6-yl]-phenol] | 68 |  |
| COc1ccc(-c2ccc3c(-c4cccnc4)csc3c2)cc1OC [Example 21, 3-[6-(3,4-dimethoxyphenyl)benzo[b]thiophen-3-yl]pyridine] | 30 |  |
| Oc1ccc(-c2ccc3c(-c4cccnc4)csc3c2)cc1O [Example 22, 4-[3-(3-pyridyl)benzo[b]thiophen-6-yl]benzene-1,2-diol] | 73 |  |
| Nc1cccc(-c2ccc3c(-c4cccnc4)csc3c2)c1 [Example 23, 3-[3-(3-pyridyl)benzo[b]thiophen-6-yl]phenylamine] | 100 |  |
| c1cncc(-c2csc3cc(OC4CCCC4)ccc23)c1 [Example 25, 3-(6-cyclopentyloxybenzo[b]thiophen-3-yl)pyridine hydrochloride] | 76 |  |
| COc1cccc(Oc2ccc3c(-c4cccnc4)csc3c2)c1 [Example 26, 3-[6-(3-methoxyphenoxy)benzo[b]thiophen-3-yl]pyridine hydrochloride] | 1 |  |
| Cc1ccc2c(-c3cccnc3)csc2c1 [Example 27, 3-(6-methylbenzo[b]thiophen-3-yl)pyridine hydrochloride] | 56 |  |
| Brc1ccc2c(-c3cccnc3)csc2c1 [Example 28, 3-(6-bromobenzo[b]thiophen-3-yl)pyridine hydrochloride] | 42 |  |
| Brc1cccc2scc(-c3cccnc3)c12 [Example 29, 3-(4-bromobenzo[b]thiophen-3-yl)pyridine hydrochloride] | 25 |  |
| c1cncc(-c2csc3cc(OC4CCC4)ccc23)c1 [Example 30, 3-(6-cyclobutyloxybenzo[b]thiophen-3-yl) pyridine hydrochloride] | 100 |  |

| Structure (SMILES) | inhibition at 0.3 µM [%] | Inhibitory activity (%) |
| --- | --- | --- |
| c1cncc(-c2csc3cc(-c4ccsc4)ccc23)c1 [Example 31, 3-[6-(3-thienyl)benzo[b]thiophen-3-yl]pyridine hydrochloride] | 100 |  |
| c1cncc(-c2csc3cc(-c4ccoc4)ccc23)c1 [Example 32, 3-[6-(3-furyl)benzo[b]thiophen-3-yl]pyridine hydrochloride] | 100 |  |
| c1cncc(-c2csc3cc(-c4cccs4)ccc23)c1 [Example 33, 3-[6-(2-thienyl)benzo[b]thiophen-3-yl]pyridine hydrochloride] | 100 |  |
| c1cncc(-c2csc3cc(-c4ccco4)ccc23)c1 [Example 34, 3-[6-(2-furyl)benzo[b]thiophen-3-yl]pyridine hydrochloride] | 100 |  |
| CCCCCCOc1ccc2c(-c3cccnc3)csc2c1 [Example 35, 3-(6-hexyloxybenzo[b]thiophen-3-yl)pyridine hydrochloride] | 61 |  |
| CCCCCOc1ccc2c(-c3cccnc3)csc2c1 [Example 36, 3-(6-amyloxybenzo[b]thiophen-3-yl)pyridine hydrochloride] | 60 |  |
| CCCCOc1ccc2c(-c3cccnc3)csc2c1 [Example 37, 3-(6-butyloxybenzo[b]thiophen-3-yl)pyridine hydrochloride] | 80 |  |
| CC(=O)c1ccccc1-c1ccc2c(-c3cccnc3)csc2c1 [Example 38, 1-{2-[3-(3-pyridyl)benzo[b]thiophen-6-yl]phenyl}-1-ethanone hydrochloride] | 45 |  |
| CC(=O)c1cccc(-c2ccc3c(-c4cccnc4)csc3c2)c1 [Example 39, 1-{3-[3-(3-pyridyl)benzo[b]thiophen-6-yl]phenyl}-1-ethanone] | 64 |  |
| CC(C)COc1ccc2c(-c3cccnc3)csc2c1 [Example 40, 3-(6-isobutyloxybenzo[b]thiophen-3-yl) pyridine hydrochloride] | 79 |  |
| CCCOc1ccc2c(-c3cccnc3)csc2c1 [Example 41, 3-(6-propyloxybenzo[b]thiophen-3-yl)pyridine hydrochloride] | 95 |  |
| c1cncc(-c2csc3cc(-c4ccc5c(c4)OCO5)ccc23)c1 [Example 42, 3-[6-(1,3-benzodioxol-5-yl)benzo[b]thiophen-3-yl]pyridine hydrochloride] | 57 |  |
| CCOc1ccc2c(-c3cccnc3)csc2c1 [Example 43, 3-(6-ethyloxybenzo[b]thiophen-3-yl)pyridine hydrochloride] | 97 |  |
| CC(=O)c1ccc(-c2ccc3c(-c4cccnc4)csc3c2)cc1 [Example 44, 1-{4-[3-(3-pyridyl)benzo[b]thiophen-6-yl]phenyl}-1-ethanone] | 46 |  |
| CN(C)CCOc1ccc2c(-c3cccnc3)csc2c1 [Example 45, 3-[6-(N,N-dimethyl-2-aminoethyloxy)benzo[b]thiophen-3-yl]pyridine dimaleate] | 33 |  |
| CC(C)Cc1ccc2c(-c3cccnc3)csc2c1 [Example 46, 3-(6-isobutylbenzo[b]thiophen-3-yl)pyridine hydrochloride] | 100 |  |
| CSc1ccc(-c2ccc3c(-c4cccnc4)csc3c2)cc1 [Example 47, 3-[6-(4-methylthiophenyl)benzo[b]thiophen-3-yl]pyridine hydrochloride] | 53 |  |
| Cl.FC(F)(F)c1ccccc1-c1ccc2c(-c3cccnc3)csc2c1 [Example 48, 3-{[6-(2-trifluoromethyl)phenyl]benzo[b]thiophen-3-yl}pyridine hydrochloride] |  | 54 |
| CC(C)Nc1cccc(-c2ccc3c(-c4cccnc4)csc3c2)c1 [Example 49, isopropyl {3-[3-(3-pyridyl)benzo[b]thiophen-6-yl]phenyl}amine] | 67 |  |
| c1cncc(-c2csc3cc(C4CCCCC4)ccc23)c1 [Example 50, 3-(6-cyclohexylbenzo[b]thiophen-3-yl)pyridine hydrochloride] | 80 |  |
| CC(C)Oc1cccc(-c2ccc3c(-c4cccnc4)csc3c2)c1 [Example 51, 3-[6-(3-isopropyloxyphenyl)benzo[b]thiophen-3-yl]pyridine hydrochloride] | 37 |  |
| CCCc1ccc2c(-c3cccnc3)csc2c1 [Example 52, 3-(6-propylbenzo[b]thiophen-3-yl)pyridine hydrochloride] | 93 |  |

Reference: patent US20030130340A1, “Novel benzothiophene derivatives” (Daiichi Pharmaceutical Co. Ltd., priority 2000, published 2003)
